Each compound was assayed on HBV viral production from HepAD38 cells (assay: Activity of test compounds on viral production from HepAD38 cells (viral load by qPCR of HBV core sequence in supernatant)). Details: Hepatitis B virus, 120 h, 5 days incubation, HBV DNA in supernatant by qPCR, top concentration 10 μM, read-out: Viral Load EC50 Activity range.
Type: cell-based
Method in brief: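 HepAD38 cells, 50,000/well in tetracycline-free 2% FBS medium, treated 5 days at 37° C. with compound from 10 μM top concentration. HBV DNA in supernatant quantified by TaqMan qPCR of core sequence against DNA standards, relative to DMSO wells; CellTiter-Glo viability read in parallel. EC50/CC50 from four-parameter logistic fit.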
Work on `CN1C(C(=O)Nc2ccc(F)c(Cl)c2)CC(c2cccc(Cl)c2)NS1(=O)=O` (racemic) [HBV-CSU-261, Cis-N-(3-Chloro-4-fluorophenyl)-5-(3-chlorophenyl)-2-methyl-1,2,6-thiadiazinane-3-carboxamide 1,1-dioxide] yielded an EC50 of less than 1000 nM.
In the case of `CN1[C@@H](C(=O)Nc2ccc(F)c(Cl)c2)C[C@@H](c2ncc(-c3ccc(F)cn3)s2)NS1(=O)=O` [HBV-CSU-252-ISO-II, Cis-N-(3-Chloro-4-fluorophenyl)-5-(5-(5-fluoropyridin-2-yl)thiazol-2-yl)-2-methyl-1,2,6-thiadiazinane-3-carboxamide 1,1-dioxide], the EC50 is reported as greater than 5000 nM.
Compound `CN1[C@H](C(=O)Nc2ccc(F)c(Cl)c2)C[C@H](c2ccc(-c3cn[nH]c3)s2)NS1(=O)=O` [HBV-CSU-244-ISO-I] has an EC50 of less than 1000 nM.
In the case of `CN1C(C(=O)Nc2ccc(F)c(Cl)c2)CC(c2cc(-c3ccc(Br)c(F)c3)cs2)NS1(=O)=O` (racemic) [HBV-CSU-165, Cis-N-(3-chloro-4-fluorophenyl)-5-(4-(4-bromo-3-fluorophenyl)thiophen-2-yl)-2-methyl-1,2,6-thiadiazinane-3-carboxamide 1,1-dioxide], the EC50 is reported as 1000 to 5000 nM.
Work on `CN1[C@H](C(=O)Nc2ccc(F)c(Cl)c2)C[C@@H](c2ccc(-c3cn(C)cn3)s2)NS1(=O)=O` [HBV-CSU-266-Trans-ISO-II, (3S,5S)-N-(3-chloro-4-fluorophenyl)-2-methyl-5-(5-(1-methyl-1H-imidazol-4-yl)thiophen-2-yl)-1,2,6-thiadiazinane-3-carboxamide 1,1-dioxide] yielded an EC50 of 1000 to 5000 nM.
Work on `Cc1sc(C2CC(C(=O)Nc3ccc(F)c(Cl)c3)N(C)S(=O)(=O)N2)cc1-c1cnn(C)c1` (racemic) [HBV-CSU-304, Cis-N-(3-Chloro-4-fluorophenyl)-2-methyl-5-(5-methyl-4-(1-methyl-1H-pyrazol-4-yl)thiophen-2-yl)-1,2,6-thiadiazinane-3-carboxamide 1,1-dioxide] yielded an EC50 of less than 1000 nM.
`Cc1cnc([C@H]2C[C@@H](C(=O)Nc3ccc(F)c(Cl)c3)N(C)S(=O)(=O)N2)s1` gave an EC50 of less than 1000 nM.
`CN(C)CCN1[C@H](c2cccs2)C[C@H](C(=O)Nc2ccc(F)c(Cl)c2)N(C)S1(=O)=O` [HBV-CSU-043-ISO-II, Cis-N-(3-chloro-4-fluorophenyl)-6-(2-(dimethylamino)ethyl)-2-methyl-5-(thiophen-2-yl)-1,2,6-thiadiazinane-3-carboxamide 1,1-dioxide] showed an EC50 greater than 5000 nM.
Work on `CN1C(C(=O)Nc2ccc(F)c(Cl)c2)CC(c2cc(Br)c(Cl)s2)NS1(=O)=O` (stereo not drawn) [HBV-CSU-330, Cis-5-(4-bromo-5-chlorothiophen-2-yl)-N-(3-chloro-4-fluorophenyl)-2-methyl-1,2,6-thiadiazinane-3-carboxamide 1,1-dioxide] yielded an EC50 of less than 1000 nM.
Work on `CN1C(C(=O)Nc2ccc(F)c(Cl)c2)CC(c2ccc(-c3ccc(NS(C)(=O)=O)cc3)s2)NS1(=O)=O` (racemic) [HBV-CSU-163, Cis-N-(3-chloro-4-fluorophenyl)-2-methyl-5-(5-(4-(methylsulfonamido)phenyl)thiophen-2-yl)-1,2,6-thiadiazinane-3-carboxamide 1,1-dioxide] yielded an EC50 of less than 1000 nM.
In the case of `CN1[C@H](C(=O)Nc2ccc(F)c(Cl)c2)C[C@H](c2cc(-c3cnn(C(F)(F)F)c3)cs2)NS1(=O)=O` [HBV-CSU-325-ISO-I, Cis-N-(3-Chloro-4-fluorophenyl)-2-methyl-5-(4-(1-(trifluoromethyl)-1H-pyrazol-4-yl)thiophen-2-yl)-1,2,6-thiadiazinane-3-carboxamide 1,1-dioxide], the EC50 is reported as less than 1000 nM.
In the case of `CN1C(C(=O)Nc2ccccc2)CC(c2cccs2)NS1(=O)=O` (stereo not drawn) [HBV-CSU-006, Cis-2-Methyl-N-phenyl-5-(thiophen-2-yl)-1,2,6-thiadiazinane-3-carboxamide 1,1-dioxide], the EC50 is reported as less than 1000 nM.
`CN1[C@@H](C(=O)Nc2ccc(F)c(Cl)c2)C[C@H](c2ncc(Br)s2)NS1(=O)=O` [HBV-CSU-122-Trans-ISO-I, (3R,5R)-5-(5-bromothiazol-2-yl)-N-(3-chloro-4-fluorophenyl)-2-methyl-1,2,6-thiadiazinane-3-carboxamide 1,1-dioxide] gave an EC50 of 1000 to 5000 nM.
Compound `CCN1C(C(=O)Nc2ccc(F)c(Cl)c2)CC(c2cccs2)NS1(=O)=O` (racemic) [HBV-CSU-024, Cis-N-(3-chloro-4-fluorophenyl)-2-ethyl-5-(thiophen-2-yl)-1,2,6-thiadiazinane-3-carboxamide 1,1-dioxide] has an EC50 of less than 1000 nM.
With `CSCCN1C(C(=O)Nc2ccc(F)c(Cl)c2)CC(c2nccs2)NS1(=O)=O` (racemic) [HBV-CSU-109, Cis-N-(3-Chloro-4-fluorophenyl)-2-(2-(methylthio)ethyl)-5-(thiazol-2-yl)-1,2,6-thiadiazinane-3-carboxamide 1,1-dioxide] the EC50 was less than 1000 nM.
Compound `CN1C(C(=O)Nc2ccc(F)c(Cl)c2)CC(c2cc(Cl)c(Br)s2)NS1(=O)=O` (stereo not drawn) [HBV-CSU-329, Cis-5-(5-bromo-4-chlorothiophen-2-yl)-N-(3-chloro-4-fluorophenyl)-2-methyl-1,2,6-thiadiazinane-3-carboxamide 1,1-dioxide] has an EC50 of less than 1000 nM.
`CN1[C@H](C(=O)Nc2ccc(F)c(Cl)c2)C[C@H](c2ccc(-c3cnn(C)c3)s2)NS1(=O)=O` [HBV-CSU-161-ISO-I, Cis-N-(3-chloro-4-fluorophenyl)-2-methyl-5-(5-(1-methyl-1H-pyrazol-4-yl)thiophen-2-yl)-1,2,6-thiadiazinane-3-carboxamide 1,1-dioxide] gave an EC50 of less than 1000 nM.
`CN(C(=O)C1CC(c2cccs2)NS(=O)(=O)N1C)c1ccc(F)c(Cl)c1` (stereo not drawn) [HBV-CSU-015, Cis-N-(3-Chloro-4-fluorophenyl)-N-2-dimethyl-5-(thiophen-2-yl)-1,2,6-thiadiazinane-3-carboxamide 1,1-dioxide] showed an EC50 of 1000 to 5000 nM.
`CN1C(C(=O)Nc2ccc(F)c(Cl)c2)CC(c2ccc(-c3ccc(Br)c(F)c3)s2)NS1(=O)=O` (stereo not drawn) [HBV-CSU-157, Cis-N-(3-chloro-4-fluorophenyl)-5-(5-(4-bromo-3-fluorophenyl)thiophen-2-yl)-2-methyl-1,2,6-thiadiazinane-3-carboxamide 1,1-dioxide] was tested, and the EC50 was 1000 to 5000 nM.
Work on `CN1[C@@H](C(=O)Nc2ccc(F)c(Cl)c2)C[C@@H](c2cc(-c3ncnn3C)cs2)NS1(=O)=O` [HBV-CSU-327-ISO-II, Cis-N-(3-Chloro-4-fluorophenyl)-2-methyl-5-(4-(1-methyl-1H-1,2,4-triazol-5-yl)thiophen-2-yl)-1,2,6-thiadiazinane-3-carboxamide 1,1-dioxide] yielded an EC50 of 1000 to 5000 nM.
Work on `C=CCN1[C@@H](C(=O)Nc2ccc(F)c(Cl)c2)C[C@@H](c2nccs2)NS1(=O)=O` [HBV-CSU-094-ISO-I, Cis-2-Allyl-N-(3-chloro-4-fluorophenyl)-5-(thiazol-2-yl)-1,2,6-thiadiazinane-3-carboxamide 1,1-dioxide] yielded an EC50 greater than 5000 nM.
`CN1C(C(=O)Nc2ccc(F)c(Cl)c2)CC(c2cc(-c3ncnn3C)cs2)NS1(=O)=O` (racemic) [HBV-CSU-327, Cis-N-(3-Chloro-4-fluorophenyl)-2-methyl-5-(4-(1-methyl-1H-1,2,4-triazol-5-yl)thiophen-2-yl)-1,2,6-thiadiazinane-3-carboxamide 1,1-dioxide] showed an EC50 of less than 1000 nM.
`CN1[C@H](C(=O)Nc2ccc(F)c(Cl)c2)C[C@H](c2cc(-c3ccc(C#N)c(F)c3)cs2)NS1(=O)=O` [HBV-CSU-164-ISO-I, Cis-N-(3-chloro-4-fluorophenyl)-5-(4-(4-cyano-3-fluorophenyl)thiophen-2-yl)-2-methyl-1,2,6-thiadiazinane-3-carboxamide 1,1-dioxide] showed an EC50 of less than 1000 nM.
Compound `Cc1cnc([C@@H]2C[C@H](C(=O)Nc3ccc(F)c(Cl)c3)N(C)S(=O)(=O)N2)s1` has an EC50 greater than 5000 nM.

From patent publication US11078170B2 (Assembly Biosciences, Inc., priority 2017, dated 2021)
